Measurements as given in patent publication US20050170393A1, “OATPB transporters expressed in blood brain barrier cells” (Xenoport, Inc., priority 2004, published 2005).

Legend:
OATPB [1] = biological target: T1, OATPB (Homo sapiens, UniProt O94956); assay: ^3H-estrone sulfate uptake into oocytes injected with OATPB cRNA; type: cell-based; set-up: expressed in transfected cells; host or cells: Xenopus oocytes injected with OATPB cRNA; conditions: oocytes expressing OATPB versus noninjected controls (FIG. 2)
T1 sequence (O94956 1-709): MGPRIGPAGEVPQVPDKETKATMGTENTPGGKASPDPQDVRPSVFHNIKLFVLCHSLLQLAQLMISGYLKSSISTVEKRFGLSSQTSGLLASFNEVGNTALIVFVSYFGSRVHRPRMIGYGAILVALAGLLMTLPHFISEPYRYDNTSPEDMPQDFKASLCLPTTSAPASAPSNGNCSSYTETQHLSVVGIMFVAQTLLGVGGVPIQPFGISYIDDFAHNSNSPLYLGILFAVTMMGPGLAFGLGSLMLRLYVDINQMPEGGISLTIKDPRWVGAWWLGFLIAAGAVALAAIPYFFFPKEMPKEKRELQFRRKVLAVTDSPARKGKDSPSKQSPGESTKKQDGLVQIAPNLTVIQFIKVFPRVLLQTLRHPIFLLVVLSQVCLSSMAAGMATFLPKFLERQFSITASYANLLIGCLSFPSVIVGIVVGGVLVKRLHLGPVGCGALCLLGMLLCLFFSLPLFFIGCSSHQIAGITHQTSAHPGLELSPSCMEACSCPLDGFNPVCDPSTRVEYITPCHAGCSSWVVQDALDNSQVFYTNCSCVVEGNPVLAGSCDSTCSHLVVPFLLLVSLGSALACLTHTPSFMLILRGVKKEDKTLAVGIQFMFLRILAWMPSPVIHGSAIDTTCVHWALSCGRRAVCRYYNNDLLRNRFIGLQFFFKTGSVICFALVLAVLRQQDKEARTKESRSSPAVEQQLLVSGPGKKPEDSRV

OATPB [2] = biological target: T1, OATPB; conditions: cited from earlier work
PgP = biological target: T2, PgP (Homo sapiens, UniProt P08183); assay: Cellular transwell monolayer efflux assay in MDCK cells transfected with TREx-PgP; type: cell-based
T2 construct: expressed in transfected cells; host or cells: MDCK cells
T2 sequence (P08183 whole entry): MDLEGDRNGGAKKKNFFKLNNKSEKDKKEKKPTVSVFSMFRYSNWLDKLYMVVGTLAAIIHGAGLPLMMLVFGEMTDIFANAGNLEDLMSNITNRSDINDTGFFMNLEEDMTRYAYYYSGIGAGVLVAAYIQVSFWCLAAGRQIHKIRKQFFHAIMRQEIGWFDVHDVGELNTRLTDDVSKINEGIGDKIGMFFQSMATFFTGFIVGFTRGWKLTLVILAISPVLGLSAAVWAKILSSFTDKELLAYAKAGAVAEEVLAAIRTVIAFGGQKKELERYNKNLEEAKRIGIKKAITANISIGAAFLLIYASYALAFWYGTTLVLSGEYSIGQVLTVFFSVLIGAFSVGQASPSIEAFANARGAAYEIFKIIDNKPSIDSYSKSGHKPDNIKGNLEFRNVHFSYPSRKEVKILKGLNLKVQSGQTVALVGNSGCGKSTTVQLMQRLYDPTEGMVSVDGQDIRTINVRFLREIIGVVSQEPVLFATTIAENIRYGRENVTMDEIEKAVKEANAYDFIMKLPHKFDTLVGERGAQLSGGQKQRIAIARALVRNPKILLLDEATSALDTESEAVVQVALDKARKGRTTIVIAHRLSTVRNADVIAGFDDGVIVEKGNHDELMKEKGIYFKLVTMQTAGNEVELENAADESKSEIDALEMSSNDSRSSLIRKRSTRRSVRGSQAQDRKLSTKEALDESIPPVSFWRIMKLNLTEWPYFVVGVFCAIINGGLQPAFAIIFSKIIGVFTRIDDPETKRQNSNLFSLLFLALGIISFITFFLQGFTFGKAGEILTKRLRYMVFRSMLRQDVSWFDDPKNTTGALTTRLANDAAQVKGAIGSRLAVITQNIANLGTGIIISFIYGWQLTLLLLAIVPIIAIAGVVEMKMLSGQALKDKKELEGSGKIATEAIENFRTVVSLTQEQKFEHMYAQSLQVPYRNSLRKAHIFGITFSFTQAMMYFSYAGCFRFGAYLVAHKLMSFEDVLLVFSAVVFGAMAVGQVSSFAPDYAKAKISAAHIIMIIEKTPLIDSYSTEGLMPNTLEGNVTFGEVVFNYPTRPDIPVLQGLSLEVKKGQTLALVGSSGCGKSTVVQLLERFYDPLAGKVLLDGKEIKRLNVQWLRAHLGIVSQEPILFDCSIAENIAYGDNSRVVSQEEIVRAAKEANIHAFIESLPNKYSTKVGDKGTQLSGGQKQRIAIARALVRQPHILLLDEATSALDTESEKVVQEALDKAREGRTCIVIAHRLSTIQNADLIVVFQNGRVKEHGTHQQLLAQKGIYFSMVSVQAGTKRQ
Method: A third type of efflux transporter assay is the cellular transwell monolayer efflux assay. […] The cells form a polarized monolayer. The transwell dishes have apical and basolateral chambers that are separated by the filter membrane on which the polarized monolayer is situated. Assays are performed by placing a test compound in either the apical or basolateral chamber, followed by sampling the opposite chamber after a predetermined period of time such as 60-120 minutes and measuring the amount of the test compound. The test compound can be measured by methods such as radiolabel detection or LC-MS-MS analysis. Assays are performed in the presence and absence of an efflux transporter inhibitor or competitor. Efflux transporter inhibitors or competitors increase apical to basolateral transport and decrease basolateral to apical transport of compounds that are efflux transporter substrates. Apparent permeability (Papp) of test compounds is measured. […] Test compounds that generate ratios between 1.5 and 2.0 require additional testing to determine if they are efflux transporter substrates.
MDCK cells transfected with the tetracycline-inducible TREx-PgP expression vector were seeded on polycarbonate filter membranes in transwell dishes and grown for 3-5 days, yielding a polarized monolayer with tight junctions between cells. […] The left set of bars depicts apical to basolateral transport, while the right set of bars depicts basolateral to apical transport.

OATPB transporter = biological target: T3, OATPB transporter (Homo sapiens, UniProt O94956); assay: Direct uptake assay in tet-induced and non-induced OATPB-HEK/TREx cells (LC-MS-MS); type: cell-based; conditions: 125, 250, 500 or 1000 μM, 20 minutes at room temperature, with and without tetracycline (FIG. 7)
T3 construct: expressed in transfected cells
T3 sequence (O94956 1-709): T1 sequence (O94956 1-709)
Text: To increase the throughput of OATPB compound screening, a mammalian cell assay was developed using an inducible expression system. OATPB was subcloned into a plasmid that allows for inducible expression by tetracycline (TREx plasmid, Invitrogen Inc. Carlsbad Calif.). The OATPB-HEK plasmid was […] transfected into a HEK cell line engineered for tetracycline-inducible expression (HEK-TREx, Invitrogen) and stable clones were isolated by G418 selection and […] (FACS).
In order to measure whether test compounds are actively translocated across the membrane, and to determine the maximal transport rate, a direct uptake method can be used in which transport of a test compound is measured by mass spectroscopy. For direct uptake measurements using mass spectroscopy, OATPB-HEK/TREx cells can be prepared similarly to those used for competition studies (described above). […] The supernatant is analyzed by LC-MS-MS. As a negative control, uptake is measured in cells not treated with tetracycline, or by competition with another substrate such as estrone-3-sulfate or bromosulphophthalein (3 mM).
The uptake of PGFα by OATPB-HEK/TREx cells was measured as described in Example 3. […] The supernatant was analyzed by LC-MS-MS. As a negative control, uptake was measured in cells not treated with tetracycline.

[3] = 2.5 nM ^3H-vinblastine, in the presence of 250 μM verapamil versus absence (FIG. 6)

C[C@]12CC[C@@H]3c4ccc(OS(=O)(=O)O)cc4CC[C@H]3[C@@H]1CCC2=O [Estrone-3-sulfate]
^3H-estrone-3-sulfate uptake (OATPB [1]): higher levels of ^3H-estrone-3-sulfate uptake than noninjected controls
Reported Affinity for OATPB (OATPB [2]): 0.1 mM

CC[C@]1(O)C[C@@H]2CN(CCc3c([nH]c4ccccc34)[C@@](C(=O)OC)(c3cc4c(cc3OC)N(C)[C@H]3[C@@](O)(C(=O)OC)[C@H](OC(C)=O)[C@]5(CC)C=CCN6CC[C@]43[C@@H]65)C2)C1 [^3H-vinblastine]
Apical to basolateral transport (PgP; [3]): strongly increased
Basolateral to apical transport (PgP; [3]): strongly decreased
PgP substrate status (PgP; conclusion from the transwell assay with and without verapamil): is a substrate of PgP

O=C1OC(c2ccc(O)c(S(=O)(=O)O)c2)(c2ccc(O)c(S(=O)(=O)O)c2)c2c(Br)c(Br)c(Br)c(Br)c21 [Bromosulfophthalein]
Reported Affinity for OATPB (OATPB [2]): 0.04 mM

CCCCC[C@H](O)/C=C/[C@@H]1[C@@H](C/C=C\CCCC(=O)O)[C@@H](O)C[C@H]1O [PGFα]
OATPB substrate status (OATPB transporter): is a substrate for the OATPB transporter
